Reference: patent US20230165836A1, “ALPHA-2 ADRENERGIC RECEPTOR AGONISTS FOR THE TREATMENT OF CANCER” (UNIVERSITÉ CATHOLIQUE DE LOUVAIN, priority 2020, published 2023)

How the values were obtained:
[1] = system: MC38 colon carcinomas; assay: MC38 colon carcinoma in Adra2a KO mice; type: in vivo, C57BL/6 Adra2a KO mice; conditions: 5 mg/kg, i.p. daily from tumor size around 50 mm^3
Procedure: C57BL/6 Wildtype or C57BL/6 Adra2a KO mice bearing MC38 colon carcinomas received daily injections of vehicle control (PBS), clonidine (5 mg/kg, i.p.) or guanabenz (5 mg/kg, i.p.), when the tumor size was around 50 mm^3, until the day of sacrifice.

[2] = system: B16F1 melanoma; assay: B16F1 melanoma in immune deficient mice; type: in vivo; conditions: B16F1 in immune deficient NSG mice; 5 mg/kg, i.p.
Procedure: (§1) FIGS. 10A-B is a set of curves showing the tumor growth of B16F1 melanoma in C57BL/6J (FIG. 10A) or immunodeficient NSG mice (FIG. 10B) treated with PBS (Control, curve 1) or clonidine (5 mg/kg, i.p., curve 2).
(§2) FIGS. 11A-B is a set of curves showing the tumor growth of B16F1 melanoma in C57BL/6J (FIG. 11A) or NSG mice (FIG. 11B) treated with PBS (Control, curve 1) or guanfacine (5 mg/kg, i.p., curve 2).

[3] = system: JAK2V617F allele burden; assay: Myelofibrosis by JAK2V617F bone marrow transplantation, allele burden; type: in vivo, C57BL/6 mice; conditions: 5 mg/kg i.p. daily; Day 7 versus Day 0
Procedure: Bone marrow from primary CD45.2 JAK2V617F mice was mixed 1:1 with CD45.1 C57BL/6 marrow and transplanted into lethally irradiated CD45.2 C57BL/6 recipients. 1 month after bone marrow transplantation, mice were randomized into three groups and received daily i.p injection of 5 mg/kg of clonidine, guanabenz or PBS. Blood was taken on Day 0 (Just before the treatment) and on Day 7 (7 days after the treatment). The allele burden was assessed as a fraction of CD45.2 cells along total CD45 cells in the blood of mice.
Decreased JAK2V617F allele burden is a golden standard method to evaluate the disease progression of MF.

[4] = system: SKOV3 human ovarian tumor cells; conditions: SKOV3 in NSG mice
Procedure: SKOV3 human ovarian tumor cells were injected subcutaneously in immune deficient NSG mice. When tumors were palpable, tumor-bearing mice received adoptive cell transfer of 3×10^6 of allogeneic human PBMC (i.v.) and were injected daily with clonidine (5 mg/kg, i.p.) or vehicle (PBS, i.p.) until sacrifice.

[5] = system: B16F1 melanoma; assay: B16F1 melanoma in immune competent mice; type: in vivo; conditions: B16F1 in immune competent C57BL/6 mice; 5 mg/kg, i.p.; monotherapy
Procedure: as §1, §2

[6] = system: myeloma; assay: Tumor model: myeloma; type: in vivo, mice; conditions: myeloma (FIG. 22E, 23E)
Text: FIGS. 23A-H is a set of curves showing the tumor growth of mice treated with PBS (Control, circles) or guanabenz (GBZ, triangles) in different tumor models: such as mammary gland tumor (FIG. 23A), hepatocellular carcinoma (FIG. 23B), T cell lymphoma (FIG. 23C), lung cancer (FIG. 23D), myeloma (FIG. 23E), mammary adenocarcinoma (FIG. 23F), renal cancer (FIG. 23G) and fibrosarcoma (FIG. 23H).

Question: How did the “tumor inhibition in Adra2a KO mice” value [1] turn out when Clc1cccc(Cl)c1N=C1NCCN1 [clonidine] was run?
Answer: almost completely attenuated

Question: And the tumor growth [2]?
Answer: No tumor inhibition was found

Question: And the “JAK2V617F allele burden (CD45.2 cells among total CD45 cells in blood)” value [3]?
Answer: decrease of JAK2V617F allele burden in a number of mice

Question: What about the “anti-tumor efficacy of human PBMC” value ([4]; 3×10^6 PBMC i.v., 5 mg/kg i.p. daily) of the same molecule?
Answer: strongly increased the anti-tumor efficacy of human PBMC

Question: And the “expression of CD44 on tumor-infiltrated CD8+T cells” value ([4]; PBMC, 5 mg/kg i.p.)?
Answer: increased expression of CD44

Question: And the “infiltration of CD4+ human T cells into tumors” value ([4]; PBMC, 5 mg/kg i.p.)?
Answer: increased

Question: And the “infiltration of CD8+ human T cells into tumors” value ([4]; PBMC, 5 mg/kg i.p.)?
Answer: increased

Question: What about the “tumor growth, compared to ACT alone” value ([4]; with ACT, 5 mg/kg i.p. daily) of the same molecule?
Answer: significantly decreased

Question: What about the “tumor weight on the day of sacrifice, compared to ACT alone” value ([4]; with ACT, 5 mg/kg i.p. daily) of the same molecule?
Answer: significantly decreased

Question: What about the tumor growth [5] of the same molecule?
Answer: inhibited tumor growth

Question: What about the tumor growth [6] of the same molecule?
Answer: strong tumor inhibition
